Calls of active or inactive are those of the source.
How the values were obtained:
[1] = test system: CHO-K1; assay: (§1) Counterscreen for antagonists of the orexin 1 receptor (OX1R; HCRTR1): Homogeneous time resolved fluorescence (HTRF)-based cell-based dose response assay to identify antagonists of the parental CHO-K1 cell line. [Related pubchem assays (depositor defined):AID434989, AID435008, AID463079, AID485270, AID492963, AID492964, AID492965, AID493232, AID504699, AID504701]; assay type: functional; conditions: Cricetulus griseus
[2] = target: T1, Orexin receptor type 2 (Homo sapiens, UniProt O43614); assay: Counterscreen assay for antagonists of the orexin 1 receptor (OX1R; HCRTR1): Fluorescence-based cell-based dose response assay for antagonists of the orexin 2 receptor (OX2R; HCRTR2), run by assay provider.; assay type: functional
T1 sequence (O43614 whole entry): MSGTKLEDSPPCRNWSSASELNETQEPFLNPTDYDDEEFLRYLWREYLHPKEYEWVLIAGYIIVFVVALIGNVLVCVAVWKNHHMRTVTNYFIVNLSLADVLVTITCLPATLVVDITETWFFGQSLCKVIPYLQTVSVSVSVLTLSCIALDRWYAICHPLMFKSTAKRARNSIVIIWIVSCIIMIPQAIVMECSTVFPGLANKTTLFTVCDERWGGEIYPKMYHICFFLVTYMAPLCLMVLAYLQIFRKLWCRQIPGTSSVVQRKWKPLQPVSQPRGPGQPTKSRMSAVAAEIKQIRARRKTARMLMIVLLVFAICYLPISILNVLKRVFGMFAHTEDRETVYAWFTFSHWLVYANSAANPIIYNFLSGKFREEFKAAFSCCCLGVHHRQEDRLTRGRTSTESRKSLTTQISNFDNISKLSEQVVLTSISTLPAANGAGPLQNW

[3] = target: T1, Orexin receptor type 2; assay: Counterscreen assay for antagonists of the orexin 1 receptor (OX1R; HCRTR1): Homogeneous Time Resolved Fluorescence (HTRF)-based cell-based dose response assay for antagonists of the orexin 2 receptor (OX2R; HCRTR2), run by assay provider.; assay type: functional
[4] = as §1, with “Fluorescence-based” for “Homogeneous time resolved fluorescence (HTRF)-based”, “cell-based high throughput” for “cell-based”, “CHO” for “CHO-K1”; assay type: functional
[5] = target: T2, Orexin/Hypocretin receptor type 1 (Homo sapiens, UniProt O43613); assay: Homogeneous Time Resolved Fluorescence (HTRF)-based cell-based high throughput dose response assay for antagonists of the orexin 1 receptor (OX1R; HCRTR1). [Related pubchem assays (depositor defined):AID434989, AID435008, AID463079, AID485270, AID492963, AID492964, AID492965, AID493232, AID504717, AID504718]; assay type: functional
T2 sequence (O43613 whole entry): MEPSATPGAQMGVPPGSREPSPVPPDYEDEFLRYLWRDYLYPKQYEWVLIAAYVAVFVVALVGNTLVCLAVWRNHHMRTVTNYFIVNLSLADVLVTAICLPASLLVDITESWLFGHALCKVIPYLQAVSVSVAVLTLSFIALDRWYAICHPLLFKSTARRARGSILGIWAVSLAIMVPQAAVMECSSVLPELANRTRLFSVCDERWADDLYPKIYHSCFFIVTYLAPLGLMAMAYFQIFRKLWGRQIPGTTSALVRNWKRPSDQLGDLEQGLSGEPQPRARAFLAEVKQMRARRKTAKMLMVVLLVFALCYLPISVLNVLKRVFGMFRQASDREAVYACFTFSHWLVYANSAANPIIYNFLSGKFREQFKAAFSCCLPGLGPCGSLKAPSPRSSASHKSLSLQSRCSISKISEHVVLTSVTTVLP

[6] = target: T2, Orexin/Hypocretin receptor type 1; assay: Fluorescence-based cell-based high throughput dose response assay for antagonists of the orexin 1 receptor (OX1R; HCRTR1). [Related pubchem assays (depositor defined):AID434989, AID435008, AID463079, AID485270, AID492963, AID492964, AID492965, AID493232, AID504717, AID504718]; assay type: functional
[7] = NIH3T3 cell viability loss – ATP luminescence, mouse fibroblasts, counter-screen, dose response (AID 2010); assay type: functional, cell-based;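 note: cells exposed to compound for about 90 hours before reading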
[8] = Trypanosoma cruzi growth suppression in host cells – NIH3T3 host cells, beta-gal luminescence, confirmation (AID 2044); assay type: functional, cell-based;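 note: intracellular parasites grown in NIH/3T3 mouse fibroblasts as host cells; luminescent beta-galactosidase reporter signal from transgenic T. cruzi replicating inside host cells; inhibitors lower the luminescence signal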
[9] = target: T3, Replicative DNA helicase DnaB (Mycobacterium tuberculosis, UniProt P9WMR3); assay: DnaB intein splicing inhibitors, dose response, biochemical, cell-free fluorescence (AID 449749); assay type: functional
T3 sequence (P9WMR3 whole entry): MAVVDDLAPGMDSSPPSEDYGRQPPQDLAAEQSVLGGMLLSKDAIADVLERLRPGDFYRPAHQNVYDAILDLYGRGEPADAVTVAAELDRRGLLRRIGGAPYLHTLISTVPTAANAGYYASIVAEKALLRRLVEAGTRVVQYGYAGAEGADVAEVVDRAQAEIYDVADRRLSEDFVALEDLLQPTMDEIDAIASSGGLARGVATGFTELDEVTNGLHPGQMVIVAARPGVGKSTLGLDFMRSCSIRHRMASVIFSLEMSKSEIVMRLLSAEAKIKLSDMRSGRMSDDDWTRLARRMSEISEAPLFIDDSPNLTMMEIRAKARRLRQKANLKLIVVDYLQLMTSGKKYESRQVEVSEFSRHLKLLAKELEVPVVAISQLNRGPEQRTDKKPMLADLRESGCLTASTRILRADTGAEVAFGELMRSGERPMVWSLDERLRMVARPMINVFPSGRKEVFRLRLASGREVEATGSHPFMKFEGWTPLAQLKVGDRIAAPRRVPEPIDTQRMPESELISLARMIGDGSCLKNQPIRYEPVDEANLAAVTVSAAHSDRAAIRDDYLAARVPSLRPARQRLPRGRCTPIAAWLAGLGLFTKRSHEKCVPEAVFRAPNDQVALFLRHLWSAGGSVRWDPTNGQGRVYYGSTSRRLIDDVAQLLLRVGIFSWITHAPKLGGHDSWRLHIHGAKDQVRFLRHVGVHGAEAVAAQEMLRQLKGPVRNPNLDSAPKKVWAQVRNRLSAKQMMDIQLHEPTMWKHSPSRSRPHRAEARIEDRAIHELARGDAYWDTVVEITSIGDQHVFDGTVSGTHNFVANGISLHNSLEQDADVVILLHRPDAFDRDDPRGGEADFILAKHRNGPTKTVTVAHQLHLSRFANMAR

[10] = target: Genome polyprotein (dengue virus type 2, UniProt P29990); assay: flavivirus cap methylation enzyme inhibition – biochemical, confirmation dose response, primary screen (AID 588689); assay type: functional
Chain of Genome polyprotein (P29990 2492-3391 limits assumed): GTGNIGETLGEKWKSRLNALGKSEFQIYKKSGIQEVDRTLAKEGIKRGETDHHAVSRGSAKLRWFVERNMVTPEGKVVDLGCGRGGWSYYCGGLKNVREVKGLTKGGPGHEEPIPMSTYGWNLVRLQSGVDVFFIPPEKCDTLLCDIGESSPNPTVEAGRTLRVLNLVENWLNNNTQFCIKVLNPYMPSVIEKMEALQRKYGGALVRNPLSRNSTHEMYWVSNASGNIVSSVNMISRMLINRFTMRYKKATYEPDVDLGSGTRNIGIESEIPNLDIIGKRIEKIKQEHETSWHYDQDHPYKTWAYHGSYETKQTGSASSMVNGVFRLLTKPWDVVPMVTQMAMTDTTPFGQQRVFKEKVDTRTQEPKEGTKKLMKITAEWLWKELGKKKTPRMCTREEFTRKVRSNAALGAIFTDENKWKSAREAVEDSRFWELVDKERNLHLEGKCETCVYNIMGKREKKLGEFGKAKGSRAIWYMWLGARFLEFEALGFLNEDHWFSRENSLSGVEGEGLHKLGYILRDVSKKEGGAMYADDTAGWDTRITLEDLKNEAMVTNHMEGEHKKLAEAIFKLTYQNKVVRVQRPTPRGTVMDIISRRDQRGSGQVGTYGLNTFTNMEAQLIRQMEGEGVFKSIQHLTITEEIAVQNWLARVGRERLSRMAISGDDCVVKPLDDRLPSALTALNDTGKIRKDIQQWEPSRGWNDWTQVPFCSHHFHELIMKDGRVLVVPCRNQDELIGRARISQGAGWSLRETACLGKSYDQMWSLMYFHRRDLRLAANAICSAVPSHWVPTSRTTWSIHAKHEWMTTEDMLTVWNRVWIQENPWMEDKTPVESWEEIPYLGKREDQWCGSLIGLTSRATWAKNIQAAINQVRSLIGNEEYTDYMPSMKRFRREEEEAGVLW

[11] = target: T4, Protein RecA (Mycobacterium tuberculosis, UniProt P9WHJ3); assay: Fluorescence Cell-Free Homogeneous Dose Retest to Identify Inhibitors of RecA-Intein Splicing Activity. [Related pubchem assays (depositor defined):AID2097, AID2223, AID489010, AID492950]; assay type: functional
T4 sequence (P9WHJ3 whole entry): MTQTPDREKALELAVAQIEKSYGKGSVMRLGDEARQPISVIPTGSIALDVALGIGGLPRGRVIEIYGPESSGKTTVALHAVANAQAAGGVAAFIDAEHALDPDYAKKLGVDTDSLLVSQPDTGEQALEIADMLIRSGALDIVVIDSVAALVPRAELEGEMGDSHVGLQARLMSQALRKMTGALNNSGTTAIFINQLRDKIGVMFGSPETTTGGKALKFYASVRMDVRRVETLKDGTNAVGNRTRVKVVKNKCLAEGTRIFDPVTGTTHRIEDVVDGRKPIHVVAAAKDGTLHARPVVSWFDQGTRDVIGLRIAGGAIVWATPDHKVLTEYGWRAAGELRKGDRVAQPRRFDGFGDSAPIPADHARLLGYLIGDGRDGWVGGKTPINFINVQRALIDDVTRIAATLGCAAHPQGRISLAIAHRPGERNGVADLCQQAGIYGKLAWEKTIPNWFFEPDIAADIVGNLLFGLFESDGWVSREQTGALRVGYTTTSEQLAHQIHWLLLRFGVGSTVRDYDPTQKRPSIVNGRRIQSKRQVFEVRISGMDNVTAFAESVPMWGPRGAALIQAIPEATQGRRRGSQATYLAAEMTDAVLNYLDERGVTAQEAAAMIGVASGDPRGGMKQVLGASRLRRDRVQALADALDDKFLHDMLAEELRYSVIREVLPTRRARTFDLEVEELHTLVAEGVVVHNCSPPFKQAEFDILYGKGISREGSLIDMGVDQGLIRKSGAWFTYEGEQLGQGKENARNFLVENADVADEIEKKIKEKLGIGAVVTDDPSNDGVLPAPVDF

[12] = microbe, parasite or virus in culture; assay type: functional; conditions: Mycobacterium tuberculosis
[13] = test system: Vero; assay: viability of Vero cells under compound – cytotoxicity control for flavivirus capping enzyme inhibitors (AID 588742); assay type: functional; conditions: Chlorocebus sabaeus
[14] = target: Estrogen receptor beta (Homo sapiens, UniProt Q92731);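 note: recombinant ER-beta bound to coactivator SRC1 peptide in presence of estradiol agonist; inhibitors block coactivator peptide binding and lower the FRET signal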
Chain of Estrogen receptor beta (Q92731 whole entry): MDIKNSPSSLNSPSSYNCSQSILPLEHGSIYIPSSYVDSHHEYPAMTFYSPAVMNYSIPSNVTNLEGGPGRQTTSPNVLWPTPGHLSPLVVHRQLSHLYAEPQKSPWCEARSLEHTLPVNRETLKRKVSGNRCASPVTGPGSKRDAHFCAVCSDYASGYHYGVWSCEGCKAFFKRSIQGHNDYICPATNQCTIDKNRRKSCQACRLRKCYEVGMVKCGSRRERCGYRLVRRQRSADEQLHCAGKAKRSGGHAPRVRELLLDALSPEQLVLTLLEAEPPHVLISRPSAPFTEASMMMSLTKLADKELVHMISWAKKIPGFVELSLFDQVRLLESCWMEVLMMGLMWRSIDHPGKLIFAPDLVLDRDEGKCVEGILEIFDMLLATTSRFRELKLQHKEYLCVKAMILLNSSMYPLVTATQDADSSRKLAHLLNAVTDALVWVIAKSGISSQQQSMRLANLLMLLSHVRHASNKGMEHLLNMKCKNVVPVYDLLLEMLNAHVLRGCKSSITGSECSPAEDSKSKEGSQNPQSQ

[15] = target: T5, Insulin-degrading enzyme (Homo sapiens, UniProt P14735); assay: recombinant IDE activation, cell-free – biochemical, fluorescence polarization, counter-screen for IDE activator project, dose response (AID 588681)
T5 sequence (P14735 whole entry): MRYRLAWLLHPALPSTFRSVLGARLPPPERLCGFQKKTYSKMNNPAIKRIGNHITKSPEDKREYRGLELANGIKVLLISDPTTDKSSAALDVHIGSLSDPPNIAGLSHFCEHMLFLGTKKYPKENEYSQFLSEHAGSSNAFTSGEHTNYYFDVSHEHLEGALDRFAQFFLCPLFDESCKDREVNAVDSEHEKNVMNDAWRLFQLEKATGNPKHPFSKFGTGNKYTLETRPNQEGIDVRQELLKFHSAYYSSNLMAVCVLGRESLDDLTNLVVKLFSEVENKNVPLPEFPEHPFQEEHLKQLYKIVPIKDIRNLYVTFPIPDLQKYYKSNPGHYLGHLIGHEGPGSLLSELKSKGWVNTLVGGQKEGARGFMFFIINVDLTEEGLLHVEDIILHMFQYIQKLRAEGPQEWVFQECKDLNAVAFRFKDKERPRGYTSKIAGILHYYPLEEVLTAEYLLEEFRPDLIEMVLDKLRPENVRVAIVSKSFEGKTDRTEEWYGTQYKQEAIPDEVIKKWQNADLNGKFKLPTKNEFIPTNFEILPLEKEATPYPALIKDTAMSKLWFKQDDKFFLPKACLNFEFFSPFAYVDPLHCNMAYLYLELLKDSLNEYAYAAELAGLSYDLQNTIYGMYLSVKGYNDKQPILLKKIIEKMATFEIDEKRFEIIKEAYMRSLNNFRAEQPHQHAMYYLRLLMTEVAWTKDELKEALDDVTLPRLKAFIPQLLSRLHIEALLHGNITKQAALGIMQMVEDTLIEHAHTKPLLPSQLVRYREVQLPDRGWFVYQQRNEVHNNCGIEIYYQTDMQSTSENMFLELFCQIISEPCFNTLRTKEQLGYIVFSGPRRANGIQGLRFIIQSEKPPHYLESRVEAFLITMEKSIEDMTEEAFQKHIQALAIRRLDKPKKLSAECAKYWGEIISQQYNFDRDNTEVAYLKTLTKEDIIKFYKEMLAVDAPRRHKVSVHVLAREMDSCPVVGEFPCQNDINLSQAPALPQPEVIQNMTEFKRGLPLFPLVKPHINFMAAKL

[16] = target: T5, Insulin-degrading enzyme; assay: cellular IDE activation of Abeta substrate cleavage – fluorescence polarization, HEK cells, dose response (AID 588439); assay type: functional, cell-based
[17] = test system: HEK293; assay: optical interference in Abeta FP readout, dose response, artefact control for IDE activator project, biochemical, fluorescence polarization (AID 588442); assay type: functional, cell-based; conditions: Homo sapiens
[18] = test system: HEK293; assay: membrane integrity loss in HEK cells – cell-based, fluorescence, cytotoxicity control for IDE activator project, dose response (AID 588440); assay type: functional; conditions: Homo sapiens;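 note: cytotoxicity by LDH release measuring loss of membrane integrity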
[19] = cAMP pathway inhibition in counterscreen cell line – TR-FRET cAMP detection, counter-screen for MC4R biased antagonist project, dose response (AID 602305); assay type: functional, cell-based;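 note: U2OS cells stimulated with forskolin near its EC80 as the cAMP inducer; potency is for inhibition of forskolin-stimulated cAMP signaling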
[20] = target: Melanocortin receptor 4 (Homo sapiens, UniProt P32245); assay: inhibitors of MC4R cAMP signaling – cell-based, TR-FRET, biased antagonists, dose response (AID 602298); assay type: functional;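 note: antagonist potency against agonist-stimulated cAMP production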
Chain of Melanocortin receptor 4 (P32245 whole entry): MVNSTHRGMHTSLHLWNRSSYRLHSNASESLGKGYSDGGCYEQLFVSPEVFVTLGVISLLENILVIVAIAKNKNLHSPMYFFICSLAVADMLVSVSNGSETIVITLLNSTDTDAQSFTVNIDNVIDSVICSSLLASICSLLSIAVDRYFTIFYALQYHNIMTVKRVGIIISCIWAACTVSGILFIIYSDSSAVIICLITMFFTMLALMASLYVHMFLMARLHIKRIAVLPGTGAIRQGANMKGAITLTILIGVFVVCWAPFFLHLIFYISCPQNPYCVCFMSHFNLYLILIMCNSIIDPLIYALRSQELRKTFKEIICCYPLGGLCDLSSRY

Cc1cc(NC(=O)CCC(=O)N(Cc2cccs2)C(C(=O)NC2CCCC2)c2ccccc2)no1 (centres undefined)
IC50 [1]: > 66.2 µM (inactive) | IC50 [2]: 42.4 µM (inactive) | IC50 [3]: > 50 µM (inactive) | IC50 [4]: > 49.8 µM (inactive) | IC50 [5]: 0.315 µM (active) | IC50 [6]: 12.7 µM (inactive)

O=[N+]([O-])c1cc([N+](=O)[O-])c2c(Nc3ccccc3)n(-c3ccccc3)[n+]([O-])c2c1
EC50 [7]: > 60 µM (not active) | EC50 [8]: 0.313 µM (active) | AC50 [9]: 5.84 µM (active) | IC50 [10]: 30.9 µM (active) | EC50 [11]: 1.97 µM (active) | CC50 [12]: 29.7 µM (active) | CC50 [13]: 38.9 µM (active)

C=CCNc1nc(N(c2ccccc2)c2ccccc2)nc(-n2ccnc2)n1
IC50 [1]: > 66.2 µM (inactive) | IC50 [2]: > 88.8 µM (inactive) | IC50 [3]: > 50 µM (inactive) | IC50 [4]: > 49.8 µM (inactive) | IC50 [5]: 6.47 µM (active) | IC50 [6]: > 49.8 µM (inactive)

CC(=O)Nc1cc2c(cc1C(=O)c1ccccc1)OCCO2
IC50 [14]: > 50 µM (not active) | EC50 [15]: > 54.7 µM (inactive) | EC50 [16]: > 54.7 µM (inactive) | EC50 [17]: > 54.7 µM (inactive) | IC50 [18]: > 89.2 µM (inactive)

Cc1ccc(S(=O)(=O)N(C)CC(=O)OCC(=O)NC(=O)NC(C)C)cc1
IC50 [19]: > 64.6 µM (inactive) | IC50 [20]: > 64.6 µM (inactive)

COc1ccc(CNc2nc3ccccc3n2CCN2CCOCC2)cc1
EC50 [15]: > 54.7 µM (inactive) | EC50 [16]: > 54.7 µM (inactive) | EC50 [17]: > 55.9 µM (inactive) | IC50 [18]: > 89.1 µM (inactive)

O=C(c1cc([N+](=O)[O-])ccc1N1CCOCC1)N1CCN(c2ccc([N+](=O)[O-])cc2)CC1
EC50 [15]: 3.64 µM (active) | EC50 [16]: 3.16 µM (active) | EC50 [17]: 1.09 µM (active) | IC50 [18]: > 89.2 µM (inactive)

Reference: ChEMBL document CHEMBL1201862, “PubChem BioAssay data set” (2004)
